Measurements published in US20120202701A1, “AN ANTIBODY-GLYCAN COMPLEX TARGETING THE DISIALYL CORE II AND SIALYL LEWIS X STRUCTURES, AND USES THEREOF INVOLVING ANALYSIS OF STEM CELLS OR CANCER CELLS” (GLYKOS FINLAND OY, priority 2009, published 2012).

Assays:
mAb CHO-131 = test: Glycan microarray analysis (Consortium for Functional Glycomics, printed array version 4.0), glycan binding of mAb CHO-131; conditions: for RFU: mAb CHO-131 at 50 μg/ml, average RFU of 6 replicates after removal of highest and lowest values; for binding to CHO-131 antibody, in words: glycan microarray, as described
Description: (§1) mAb CHO-131 was purchased from R&D Systems (MAB996). mAb CSLEX was purchased form BD Biosciences (551344). Glycan microarray analysis was carried out by the Consortium for Functional Glycomics. Glycan microarrays were printed as described (Blixt 2004). Version 4.0 of the printed glycan array was used for analysis. Binding analysis was performed at 50 μg/ml of antibody. Data are reported as average RFU of 6 replicates after removal of highest and lowest values.

mAb CSLEX = test: Glycan microarray analysis (Consortium for Functional Glycomics, printed array version 4.0), glycan binding of mAb CSLEX; conditions: mAb CSLEX at 50 μg/ml; average RFU of 6 replicates after removal of highest and lowest values
Description: as §1

SMILES	RFU (mAb CHO-131) [RFU]	RFU (mAb CSLEX) [RFU]	binding to CHO-131 antibody, in words (mAb CHO-131)
CC(=O)NC1C(OCCCN)OC(CO)C(OC2OC(COS(=O)(=O)O)C(O)C(OC3(C(=O)O)CC(O)C(NC(C)=O)C(C(O)C(O)CO)O3)C2O)C1O (stereo not shown) [compound 43]	22706	12653	–
CC(=O)N[C@H]1[C@H](O[C@@H]2[C@H](O[C@]3(C(=O)O)C[C@H](O)[C@@H](NC(C)=O)[C@H]([C@H](O)[C@@H](CO)O[C@]4(C(=O)O)C[C@H](O)[C@@H](NC(C)=O)[C@H]([C@H](O)[C@@H](CO)O[C@]5(C(=O)O)C[C@H](O)[C@@H](NC(C)=O)[C@H]([C@H](O)[C@@H](CO)O[C@]6(C(=O)O)C[C@H](O)[C@@H](NC(C)=O)[C@H]([C@H](O)[C@H](O)CO)O6)O5)O4)O3)[C@@H](O)[C@H](O[C@H]3[C@H](O)[C@@H](O)[C@H](OCCN)O[C@@H]3CO)O[C@@H]2CO)O[C@H](CO)[C@H](O)[C@@H]1O [compound 215]	–	53	–
CC(=O)NC1C(O)CC(OC2C(O)C(COS(=O)(=O)O)OC(OC3C(CO)OC(OCCCN)C(NC(C)=O)C3OC3OC(C)C(O)C(O)C3O)C2O)(C(=O)O)OC1C(O)C(O)CO (stereo not shown) [compound 220]	36255	22795	–
CC(=O)NC1C(O)CC(OC2C(O)C(CO)OC(OC3C(CO)OC(OC4C(O)C(CO)OC(OC5C(CO)OC(OC6C(O)C(CO)OC(OC7C(CO)OC(OCCN)C(NC(C)=O)C7OC7OC(C)C(O)C(O)C7O)C6O)C(NC(C)=O)C5OC5OC(C)C(O)C(O)C5O)C4O)C(NC(C)=O)C3OC3OC(C)C(O)C(O)C3O)C2O)(C(=O)O)OC1C(O)C(O)CO (stereo not shown) [compound 242]	29505	31104	–
CC(=O)NC1C(O)CC(OC2C(O)C(CO)OC(OC3C(CO)OC(OCCN)C(NC(C)=O)C3OC3OC(C)C(O)C(O)C3O)C2O)(C(=O)O)OC1C(O)C(O)CO (stereo not shown) [compound 243]	20068	13988	somewhat weaker binding
CC(=O)NC1C(O)CC(OC2C(O)C(CO)OC(OC3C(CO)OC(OCCCN)C(NC(C)=O)C3OC3OC(C)C(O)C(O)C3O)C2O)(C(=O)O)OC1C(O)C(O)CO (stereo not shown) [compound 244]	34336	19491	ligand for the antibody
CC(=O)NC1C(O)CC(OC2C(O)C(CO)OC(OC3C(CO)OC(OC4C(O)C(CO)OC(OCCCN)C4O)C(NC(C)=O)C3OC3OC(C)C(O)C(O)C3O)C2O)(C(=O)O)OC1C(O)C(O)CO (stereo not shown) [compound 245]	33335	22997	third best ligand structure
CC(=O)NC1C(OCCCN)OC(CO)C(OC2OC(CO)C(O)C(OC3OC(CO)C(OC4OC(CO)C(O)C(OC5(C(=O)O)CC(O)C(NC(C)=O)C(C(O)C(O)CO)O5)C4O)C(OC4OC(C)C(O)C(O)C4O)C3NC(C)=O)C2O)C1O (stereo not shown) [compound 246]	24587	27193	–
CC(=O)N[C@H]1[C@H](OCCN)O[C@H](CO)[C@@H](O[C@@H]2O[C@H](CO[C@]3(C(=O)O)C[C@H](O)[C@@H](NC(C)=O)[C@H]([C@H](O)[C@H](O)CO)O3)[C@H](O)[C@H](O)[C@H]2O)[C@@H]1O [compound 257]	–	424	–
CC(=O)N[C@H]1[C@H]([C@H](O)[C@H](O)CO)O[C@@](OC[C@H]2O[C@@H](O[C@H]3[C@H](O)[C@@H](O)[C@H](OCCN)O[C@@H]3CO)[C@H](O)[C@@H](O)[C@H]2O)(C(=O)O)C[C@@H]1O [compound 261]	–	45	–
CC(=O)N[C@H]1[C@H](O[C@H]2[C@@H](O)[C@@H](CO)O[C@@H](O[C@@H]3[C@@H](NC(C)=O)[C@H](OCCN)O[C@H](CO)[C@H]3O[C@@H]3O[C@@H](C)[C@@H](O)[C@@H](O)[C@@H]3O)[C@@H]2O)O[C@H](CO)[C@@H](O[C@@H]2O[C@@H](C)[C@@H](O)[C@@H](O)[C@@H]2O)[C@@H]1O[C@@H]1O[C@H](CO)[C@H](O)[C@H](O)[C@H]1O [compound 266]	–	29	–
CC(=O)NC1C(OCCCN)OC(COC2(C(=O)O)CC(O)C(NC(C)=O)C(C(O)C(O)CO)O2)C(O)C1O (stereo not shown) [compound 267]	–	29	–
CC(=O)NC1C(OCCN)OC(CO)C(OC2OC(CO)C(O)C(OC3(C(=O)O)CC(O)C(NC(=O)CO)C(C(O)C(O)CO)O3)C2O)C1OC1OC(C)C(O)C(O)C1O (stereo not shown) [compound 271]	9521	4766	–
CC(=O)N[C@H]1[C@H](OCCN)O[C@H](COS(=O)(=O)O)[C@@H](O[C@@H]2O[C@H](COS(=O)(=O)O)[C@H](O)[C@H](O)[C@H]2O)[C@@H]1O [compound 287]	1306	29	–
CC(=O)N[C@H]1[C@H](OCCCN)O[C@H](CO)[C@@H](O[C@@H]2O[C@H](CO)[C@H](O)[C@H](O[C@@H]3O[C@H](CO)[C@H](O)[C@H](O)[C@H]3O)[C@H]2O)[C@@H]1O [compound 291]	–	46	–
CC(=O)N[C@H]1[C@H](OCCN)O[C@H](CO)[C@@H](O[C@@H]2O[C@H](CO[C@H]3O[C@H](CO)[C@@H](O[C@@H]4O[C@H](CO)[C@H](O)[C@H](O)[C@H]4O)[C@H](O)[C@H]3NC(C)=O)[C@H](O)[C@H](O)[C@H]2O)[C@@H]1O [compound 295]	–	30	–
CC(=O)NC1C(OCCCN)OC(CO)C(O)C1OC1OC(C(=O)O)C(O)C(O)C1O (stereo not shown) [compound 299]	5434	39	–
CC(=O)NC1C(O)CC(OC2C(O)C(CO)OC(OC3C(NC(C)=O)C(OC4C(O)C(CO)OC(OC5C(NC(C)=O)C(OCCN)OC(CO)C5OC5OC(C)C(O)C(O)C5O)C4O)OC(CO)C3OC3OC(C)C(O)C(O)C3O)C2O)(C(=O)O)OC1C(O)C(O)CO (stereo not shown) [compound 326]	–	42	–
CC(=O)N[C@H]1[C@H](O[C@H]2[C@@H](O)[C@@H](CO)O[C@@H](O[C@H]3[C@H](O[C@@H]4O[C@@H](C)[C@@H](O)[C@@H](O)[C@@H]4O)[C@@H](NC(C)=O)[C@H](O[C@H]4[C@@H](O)[C@@H](CO)O[C@@H](O[C@H]5[C@H](O[C@@H]6O[C@@H](C)[C@@H](O)[C@@H](O)[C@@H]6O)[C@@H](NC(C)=O)[C@H](OCCN)O[C@@H]5CO)[C@@H]4O)O[C@@H]3CO)[C@@H]2O)O[C@H](CO)[C@@H](O[C@@H]2O[C@H](CO)[C@H](O[C@H]3O[C@H](CO)[C@@H](O)[C@H](O)[C@H]3NC(C)=O)[C@H](O)[C@H]2O)[C@@H]1O [compound 337]	706	41	some binding
